One experiment deals with Phospho-Akt S473. The experiment is described as follows: ELISA analysis of Phospho-Akt S473 in primary cortical neuron cells. In kind it is cell-based, mouse. The settings on record: 500 nM, 10 min at 37° C. The method, then: The primary cortical neuron cells were cultured in the same way as in Example 21, and after maturity, appropriate amount of freshly prepared culture medium was added until final volume in each well was 2 mL. The experiment included a blank control group (Vehicle), a positive control group BDNF (10 ng/mL), a control compound group (500 nM), and 6 test compound groups (500 nM). Three repeats were set for each dose. After incubating at 37° C. for 10 min, the culture solution was discarded and the cells were washed with pre-chilled PBS, and then 40 μL of pre-chilled lysate (RIPA buffer 10 mL and protease and phosphatase inhibitor 100 μL) was added to each well for lysis on ice for 30 min. After lysis, the cell was crushed by ultrasonic cell crusher, centrifuged at 14000 rpm for 20 min at 4° C. The supernatant was transferred to a new 1.5 mL centrifuge tube to extract protein. The p-Akt ELISA experiment quantitatively detected the intracellular p-Akt protein level.
A series of p-Akt standard solutions with different concentrations were prepared, and the absorbance value was measured to make a standard curve. Phospho-Akt1 (Ser473) sandwich ELISA kit was purchased from Cell Signaling Technology (catalog number 7160). The antibody was coated in a 96-well plate at 4° C. overnight and was washed. The coated plate was blocked with 2% bovine serum albumin (BSA), and after sufficient washing, 100 μL of sample diluent (supplied in the kit) was added to each well to dilute the extracted protein. The plate was incubated overnight at 4° C. After washing 4 times with 200 μL of washing buffer (supplied in the kit), 100 μL/well of detection antibody was added and the plate was incubated at 37° C. for 1 hour. After 4 washes, 100 μL of HRP-conjugated secondary antibody (supplied in the kit) was added and the plate was incubated at 37° C. for 30 minutes. After the final wash, 100 μL of TMB substrate was added to each well and the plate was incubated at 37° C. for 10 minutes. TMB was use as a substrate to detect the signal, since TMB can be oxidized to produce a blue solution. The reaction was stopped by adding 100 μL/well stop solution, and the test result can remain stable within one hour after the stop of the reaction. The value of each well at 450 nm and 650 nm was detected using a microplate reader. The optical density (OD) was determined by subtracting the reading at 650 nm (disturbance from the solution itself) from the reading at 450 nm. According to the OD value corresponding to the standard curve, the p-Akt concentration in each well was obtained.
the data of each group was expressed as mean standard error (x±SEM). The ratio of the detection results of each positive control group (BNDF), control compound group (the same control compound as in Example 21) and each test compound group to the blank control group was used as an indicator to compare the p-Akt test results of the positive control group, control compound group, and each test compound group. One-way ANOVA and LSD post-hoc test were used to compare the measurement data among multiple groups, and P<0.05 was considered statistically significant.

The subject of experiment [1] is N171-82Q HD mice. The experiment is described as follows: Rotarod experiment, HD mice. Format: in vivo, mouse. The settings on record: 5 mg/kg/d intragastric. As to the method: (§1) 7-week-old N171-82Q HD male mice were paired with female B6C3F1/J hybrid mice to obtain newborn mice. From 21 days of age, male mice were housed in separate cages. 0.5 cm of mouse tail tissue was removed to extract DNA to determine the genotype of the mouse, such that N171-82Q HD mice and WT mice needed for the experiment were obtained. The mice were randomly divided into WT Vehicle group (normal mice), WT test compound group (administration group of normal mice, 5 mg/kg/d, n=10), HD Vehicle group (blank group of HD mice, n=15), HD test compound group (administration groups 1-5 of HD mice, 5 mg/kg/d, n=10). The test compound was suspended in 1% CMC-Na solution and administered by intragastric administration until the end of the study. The weights of the mice were measured every week. Behavioral tests were performed at 12 weeks, 18 weeks, and 24 weeks of age to investigate motor function. At 20 weeks, 3 samples of tissue from each group were used for western blotting and immunohistochemistry. At 24 weeks, MRI scans were performed. At the end of the study, the effect of the test compound on the mortality of mice was evaluated.
The software Sigmaplot 13.0 was used for statistical analysis of the data, and the data of each group was expressed as mean standard error (x±SEM). Behavioral test results were analyzed using two-way (genotype and processing factor) ANOVA and post-ho tests, the comparison and statistics of weight data were performed using two-way (genotype and age) ANOVA of repeated measures, and mortality was counted using Kaplan-Meier method. Other measurement data were analyzed by one-way ANOVA. P<0.05 was considered statistically significant.
The motor function of mice was evaluated by the rotarod experiment and three types of balance beam experiments. The shorter the time for mouse to cross the balance beam, and the longer the time to drop, the stronger the coordination ability of the mouse.
The maximum time for mice fatigue rotarod was set to 5 minutes, and the acceleration was set from 4 rpm up to 40 rpm. Time record was began when the mouse was placed on the rotarod. The time the mouse remained on the rod, i.e., drop latent period, was recorded to indicate its motor coordination ability. One day before the rotarod experiment, each mouse was trained for 5 minutes, and then rested in the cage after the training session. On the day of the experiment, the mice were placed on the rotating rotarod for three rounds of tests, with a 30-minute rest between tests before entering the next round of test. The result was the average of the three tests.
On the technique in general: In the rotarod test animals must keep their balance on a rotating rod.

Experiment [2] relates to N171-82Q HD mice. Nature of the experiment: DARPP32 protein level in striatum by Western blotting, HD mice. The settings on record: 5 mg/kg/d until 25 weeks, WT Vehicle = 100, n = 3. In kind it is in vivo, mouse. As to the method: as §1
Dopamine and cAMP-regulated phosphoprotein (DARPP-32), with a molecular weight of 32 kDa, is a basic component of dopamine signaling cascade. A pathological feature of HD is the massive loss of MSNs which can express high level of DARPP32, in the striatum. Therefore, DARPP32 can be used as a marker of nerve damage and nerve dysfunction in the HD model. After the behavioral evaluation of the mice in each experimental group was completed and the administration continued until 25 weeks, 3 mice were taken from each group to separate hippocampal tissue, striatum, and neurocortex tissue. The total protein in the striatum tissue was extracted, and the protein level of DARPP 32 was detected by Western blotting experiment.
The striatum tissue block was lysed in 100 μL of lysis buffer (RIPA buffer 10 mL, protease inhibitor 100 μL, phosphatase inhibitor 100 μL) on ice for 30 min, and then pulverized with an ultrasonic cell pulverizer, and then centrifuged at 14000 rpm for 20 min at 4° C. The supernatant was transferred to a new 1.5 mL centrifuge tube. The protein was extracted, and the protein level of DARPP 32 was detected by Western blotting.
(In general: Immunoblotting shows a protein as a band on a membrane.)

`O=c1cc(-c2ccc(N3CCCCC3)cc2)oc2c(O)c(O)ccc12` [Example 1, 7,8-dihydroxy-2-(4-(piperidin-1-yl)phenyl)-4H-chromen-4-one]: the “Relative content of p-Akt protein (ELISA, ratio to blank control group)” value with Phospho-Akt S473 stood at 212.00±2.122%. Also, the figures for the “Time to drop (drop latent period), rotarod” value (shortened to “Time to drop”) with N171-82Q HD mice [1] (12 w), in the experiment with N171-82Q HD mice [1] (18 w) and in the experiment on N171-82Q HD mice [1] (24 w) were 95.90 ± 23.32 s, 101.03 ± 32.39 s and 83.55 ± 29.07 s, respectively. Further, the “Relative intensity of DARPP32 protein” value in the experiment on N171-82Q HD mice [2] came to 96.971 ± 3.607.

For the molecule `COc1ccc2c(=O)cc(-c3ccc(N4CCCCC4)cc3)oc2c1OC` [Example 2, 7,8-dimethoxy-2-(4-(piperidin-1-yl)phenyl)-4H-chromen-4-one], the “Relative content of p-Akt protein (ELISA, ratio to blank control group)” value with Phospho-Akt S473 is 221.67±3.69%. Besides, the entries for the “Time to drop” value in the experiment on N171-82Q HD mice [1] (12 w), in the experiment on N171-82Q HD mice [1] (18 w) and in the experiment on N171-82Q HD mice [1] (24 w) were 98.89 ± 21.35 s, 107.40 ± 27.48 s and 89.67 ± 30.76 s, respectively. For the same molecule, the “Relative intensity of DARPP32 protein” value in the experiment with N171-82Q HD mice [2] was determined as 96.113 ± 2.681.

Regarding `CN(C)C1CCN(c2ccc(-c3cc(=O)c4ccc(O)c(O)c4o3)cc2)CC1` [Example 3, 2-(4-(4-(dimethylamino)piperidin-1-yl)phenyl)-7,8-dihydroxy-4H-chromen-4-one], in the experiment on Phospho-Akt S473, the “Relative content of p-Akt protein (ELISA, ratio to blank control group)” value is reported as 247.33±3.18%. Further, the “Time to drop” value in the experiment with N171-82Q HD mice [1] (12 w) stood at 94.15 ± 30.15 s; in the experiment on N171-82Q HD mice [1] (18 w) it was 103.40 ± 37.86 s; in the experiment on N171-82Q HD mice [1] (24 w), 90.06 ± 33.45 s. Moreover, the “Relative intensity of DARPP32 protein” value in the experiment with N171-82Q HD mice [2] stood at 97.032 ± 3.887.

Take `CC1(C)CCN(c2ccc(-c3cc(=O)c4ccc(O)c(O)c4o3)cc2)CC1` [Example 4, 2-(4-(4,4-dimethylpiperidin-1-yl)phenyl)-7,8-dihydroxy-4H-chromen-4-one]: the “Relative content of p-Akt protein (ELISA, ratio to blank control group)” value in the experiment with Phospho-Akt S473 was found to be 224.33±3.27%. The entries for the “Time to drop” value in the experiment on N171-82Q HD mice [1] (12 w), in the experiment with N171-82Q HD mice [1] (18 w) and in the experiment on N171-82Q HD mice [1] (24 w) were 95.09 ± 27.23 s, 99.86 ± 30.27 s and 79.15 ± 34.17 s, respectively. Further, in the experiment on N171-82Q HD mice [2], the “Relative intensity of DARPP32 protein” value is 97.348 ± 3.438.

For the molecule `CC1CC(C)CN(c2ccc(-c3cc(=O)c4ccc(O)c(O)c4o3)cc2)C1` (stereo not shown) [Example 5, 2-(4-(3,5-dimethylpiperidin-1-yl)phenyl)-7,8-dihydroxy-4H-chromen-4-one], the “Relative content of p-Akt protein (ELISA, ratio to blank control group)” value in the experiment with Phospho-Akt S473 was found to be 217.32±2.57%. Also, the “Time to drop” value in the experiment on N171-82Q HD mice [1] (12 w) was 98.19 ± 29.17 s; with N171-82Q HD mice [1] (18 w), 101.03 ± 32.39 s; with N171-82Q HD mice [1] (24 w), 81.71 ± 30.15 s. The “Relative intensity of DARPP32 protein” value in the experiment on N171-82Q HD mice [2] is 96.797 ± 3.018.

The record behind these values is US20200390755A1, “COMPOUND FOR TREATING NERVOUS SYSTEM DISEASES AND USE THEREOF” (SHAANXI MICOT TECHNOLOGY CO., LTD., priority 2018, published 2020).
